Assay results published in PubChem BioAssay (NCI).
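Growth conditions: 96-well plates. Treatment: test compound, 48 hours, 5 concentrations. Analysis: linear interpolation between bracketing concentrations; unreached endpoints set to highest concentration. Definition used: TGI = concentration required for complete inhibition of growth.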

Columns and labels:
Experiment in all cases: DTP human tumour cell line panel, 48 h
786-0 renal = tested on: 786-0 renal
HOP-62 NSCLC = tested on: HOP-62 NSCLC
MOLT-4 leukemia = tested on: MOLT-4 leukemia
UACC-257 melanoma = tested on: UACC-257 melanoma
ACHN renal = tested on: ACHN renal
COLO 205 colon = tested on: COLO 205 colon
HCT-116 colon = tested on: HCT-116 colon
IGROV1 ovarian = tested on: IGROV1 ovarian
SK-MEL-2 melanoma = tested on: SK-MEL-2 melanoma
NCI-H460 lung = tested on: NCI-H460 lung
SF-539 CNS = tested on: SF-539 CNS
MDA-MB-435 = tested on: MDA-MB-435
HS 578T breast = tested on: HS 578T breast
KM12 colon = tested on: KM12 colon
TK-10 renal = tested on: TK-10 renal
SK-OV-3 ovarian = tested on: SK-OV-3 ovarian
SF-295 CNS = tested on: SF-295 CNS
SN12C renal = tested on: SN12C renal
SK-MEL-5 melanoma = tested on: SK-MEL-5 melanoma
SF-268 CNS = tested on: SF-268 CNS
HCC-2998 colon = tested on: HCC-2998 colon
M14 melanoma = tested on: M14 melanoma
OVCAR-3 ovarian = tested on: OVCAR-3 ovarian
BT-549 breast = tested on: BT-549 breast
SNB-19 CNS = tested on: SNB-19 CNS
HCT-15 colon = tested on: HCT-15 colon
A549 NSCLC = tested on: A549 NSCLC
NCI/ADR-RES ovarian = tested on: NCI/ADR-RES ovarian
NCI-H226 lung = tested on: NCI-H226 lung
NCI-H522 lung = tested on: NCI-H522 lung
HOP-92 NSCLC = tested on: HOP-92 NSCLC
CAKI-1 renal = tested on: CAKI-1 renal
MDA-N = tested on: MDA-N
NCI-H23 lung = tested on: NCI-H23 lung
LOX IMVI melanoma = tested on: LOX IMVI melanoma
UACC-62 melanoma = tested on: UACC-62 melanoma
U251 CNS = tested on: U251 CNS
OVCAR-5 ovarian = tested on: OVCAR-5 ovarian
MDA-MB-231 breast = tested on: MDA-MB-231 breast
MCF7 breast = tested on: MCF7 breast
HT29 colon = tested on: HT29 colon
UO-31 renal = tested on: UO-31 renal
HL-60(TB) leukemia = tested on: HL-60(TB) leukemia
PC-3 prostate = tested on: PC-3 prostate
DU-145 prostate = tested on: DU-145 prostate
CCRF-CEM leukemia = tested on: CCRF-CEM leukemia
SK-MEL-28 melanoma = tested on: SK-MEL-28 melanoma
SNB-75 CNS = tested on: SNB-75 CNS
OVCAR-4 ovarian = tested on: OVCAR-4 ovarian
EKVX NSCLC = tested on: EKVX NSCLC
OVCAR-8 ovarian = tested on: OVCAR-8 ovarian
SW-620 colon = tested on: SW-620 colon
K-562 leukemia = tested on: K-562 leukemia
SR leukemia = tested on: SR leukemia
A498 renal = tested on: A498 renal
RPMI-8226 leukemia = tested on: RPMI-8226 leukemia
MALME-3M melanoma = tested on: MALME-3M melanoma

In the case of `CC1(C)CC2=C(SC3C=CC=CC3N2)C(=O)C1C(=O)C(N)=O` (stereo not given), the TGI (786-0 renal) is reported as > 100 µM, the TGI (HOP-62 NSCLC) is reported as > 100 µM and the TGI (MOLT-4 leukemia) is reported as > 100 µM. For the same compound, the TGI (UACC-257 melanoma) was > 100 µM, the TGI (ACHN renal) was > 100 µM and the TGI (COLO 205 colon) was > 100 µM. The TGI (HCT-116 colon) was > 100 µM, the TGI (IGROV1 ovarian) was > 100 µM and the TGI (SK-MEL-2 melanoma) was > 100 µM. For the same compound, the TGI (NCI-H460 lung) was > 100 µM, the TGI (SF-539 CNS) was > 100 µM and the TGI (MDA-MB-435) was > 100 µM. For the same compound, the TGI (HS 578T breast) was > 100 µM, the TGI (KM12 colon) was > 100 µM and the TGI (TK-10 renal) was > 100 µM. The TGI (SK-OV-3 ovarian) was > 100 µM, the TGI (SF-295 CNS) was > 100 µM and the TGI (SN12C renal) was > 100 µM. For the same compound, the TGI (SK-MEL-5 melanoma) was > 100 µM, the TGI (SF-268 CNS) was > 100 µM and the TGI (HCC-2998 colon) was > 100 µM. For the same compound, the TGI (M14 melanoma) was > 100 µM, the TGI (OVCAR-3 ovarian) was > 100 µM and the TGI (BT-549 breast) was > 100 µM. The TGI (SNB-19 CNS) was > 100 µM, the TGI (HCT-15 colon) was > 100 µM and the TGI (A549 NSCLC) was > 100 µM. For the same compound, the TGI (NCI/ADR-RES ovarian) was > 100 µM, the TGI (NCI-H226 lung) was > 100 µM and the TGI (NCI-H522 lung) was > 100 µM. For the same compound, the TGI (HOP-92 NSCLC) was > 100 µM, the TGI (CAKI-1 renal) was > 100 µM and the TGI (MDA-N) was > 100 µM. For the same compound, the TGI (NCI-H23 lung) was > 100 µM, the TGI (LOX IMVI melanoma) was > 100 µM and the TGI (UACC-62 melanoma) was > 100 µM. The TGI (U251 CNS) was > 100 µM, the TGI (OVCAR-5 ovarian) was > 100 µM and the TGI (MDA-MB-231 breast) was > 100 µM. The TGI (MCF7 breast) was > 100 µM, the TGI (HT29 colon) was > 100 µM and the TGI (UO-31 renal) was > 100 µM. The TGI (HL-60(TB) leukemia) was > 100 µM, the TGI (PC-3 prostate) was > 100 µM and the TGI (DU-145 prostate) was > 100 µM. For the same compound, the TGI (CCRF-CEM leukemia) was > 100 µM, the TGI (SK-MEL-28 melanoma) was > 100 µM and the TGI (SNB-75 CNS) was > 100 µM. For the same compound, the TGI (OVCAR-4 ovarian) was > 100 µM, the TGI (EKVX NSCLC) was > 100 µM and the TGI (OVCAR-8 ovarian) was > 100 µM. The TGI (SW-620 colon) was > 100 µM.

For `O=c1cc(NNc2ccc3ccccc3c2)[nH]c(=S)[nH]1`, the TGI (786-0 renal) was 39.6 µM, the TGI (HOP-62 NSCLC) was 98.3 µM and the TGI (UACC-257 melanoma) was > 100 µM. The TGI (K-562 leukemia) was 41.1 µM, the TGI (ACHN renal) was > 100 µM and the TGI (COLO 205 colon) was 46 µM. For the same compound, the TGI (HCT-116 colon) was > 100 µM, the TGI (IGROV1 ovarian) was > 100 µM and the TGI (SR leukemia) was > 100 µM. The TGI (NCI-H460 lung) was > 100 µM, the TGI (SF-539 CNS) was 82.1 µM and the TGI (MDA-MB-435) was > 100 µM. The TGI (HS 578T breast) was > 100 µM, the TGI (KM12 colon) was 38.3 µM and the TGI (TK-10 renal) was > 100 µM. The TGI (SF-295 CNS) was > 100 µM, the TGI (SN12C renal) was > 100 µM and the TGI (SK-MEL-5 melanoma) was > 100 µM. For the same compound, the TGI (SF-268 CNS) was 80 µM, the TGI (HCC-2998 colon) was > 100 µM and the TGI (M14 melanoma) was > 100 µM. The TGI (A498 renal) was > 100 µM, the TGI (OVCAR-3 ovarian) was 34.1 µM and the TGI (BT-549 breast) was > 100 µM. The TGI (SNB-19 CNS) was > 100 µM, the TGI (HCT-15 colon) was 34.1 µM and the TGI (A549 NSCLC) was > 100 µM. For the same compound, the TGI (NCI/ADR-RES ovarian) was > 100 µM, the TGI (RPMI-8226 leukemia) was > 100 µM and the TGI (NCI-H226 lung) was > 100 µM. For the same compound, the TGI (HOP-92 NSCLC) was 62.1 µM, the TGI (MDA-N) was > 100 µM and the TGI (NCI-H23 lung) was > 100 µM. For the same compound, the TGI (LOX IMVI melanoma) was 26 µM, the TGI (U251 CNS) was > 100 µM and the TGI (OVCAR-5 ovarian) was > 100 µM. For the same compound, the TGI (MDA-MB-231 breast) was > 100 µM, the TGI (MCF7 breast) was 66.6 µM and the TGI (HT29 colon) was 30 µM. For the same compound, the TGI (UO-31 renal) was > 100 µM, the TGI (HL-60(TB) leukemia) was 69.5 µM and the TGI (PC-3 prostate) was 46.4 µM. The TGI (DU-145 prostate) was > 100 µM, the TGI (SK-MEL-28 melanoma) was > 100 µM and the TGI (OVCAR-4 ovarian) was > 100 µM. The TGI (MALME-3M melanoma) was > 100 µM, the TGI (EKVX NSCLC) was > 100 µM and the TGI (OVCAR-8 ovarian) was > 100 µM. For the same compound, the TGI (SW-620 colon) was 36.8 µM.

`C=C1C[C@]23CC[C@@H]4C(CO)(CO)CC(=O)C[C@]4(C)[C@@H]2CC[C@H]1C3` was tested, and the TGI (786-0 renal) was > 100 µM, the TGI (HOP-62 NSCLC) was > 100 µM and the TGI (MOLT-4 leukemia) was > 100 µM. For the same compound, the TGI (UACC-257 melanoma) was > 100 µM, the TGI (K-562 leukemia) was > 100 µM and the TGI (ACHN renal) was > 100 µM. For the same compound, the TGI (COLO 205 colon) was > 100 µM, the TGI (HCT-116 colon) was > 100 µM and the TGI (IGROV1 ovarian) was > 100 µM. For the same compound, the TGI (SK-MEL-2 melanoma) was > 100 µM, the TGI (SR leukemia) was > 100 µM and the TGI (NCI-H460 lung) was > 100 µM. The TGI (SF-539 CNS) was > 100 µM, the TGI (MDA-MB-435) was > 100 µM and the TGI (HS 578T breast) was > 100 µM. For the same compound, the TGI (TK-10 renal) was > 100 µM, the TGI (SK-OV-3 ovarian) was > 100 µM and the TGI (SF-295 CNS) was > 100 µM. The TGI (SN12C renal) was > 100 µM, the TGI (SF-268 CNS) was > 100 µM and the TGI (HCC-2998 colon) was > 100 µM. For the same compound, the TGI (M14 melanoma) was > 100 µM, the TGI (OVCAR-3 ovarian) was > 100 µM and the TGI (BT-549 breast) was > 100 µM. For the same compound, the TGI (SNB-19 CNS) was 35.9 µM, the TGI (HCT-15 colon) was > 100 µM and the TGI (A549 NSCLC) was > 100 µM. The TGI (NCI/ADR-RES ovarian) was > 100 µM, the TGI (RPMI-8226 leukemia) was > 100 µM and the TGI (NCI-H226 lung) was > 100 µM. The TGI (NCI-H522 lung) was > 100 µM, the TGI (HOP-92 NSCLC) was > 100 µM and the TGI (CAKI-1 renal) was > 100 µM. The TGI (MDA-N) was > 100 µM, the TGI (NCI-H23 lung) was > 100 µM and the TGI (LOX IMVI melanoma) was > 100 µM. The TGI (UACC-62 melanoma) was > 100 µM, the TGI (U251 CNS) was > 100 µM and the TGI (OVCAR-5 ovarian) was > 100 µM. The TGI (MDA-MB-231 breast) was > 100 µM, the TGI (MCF7 breast) was > 100 µM and the TGI (HT29 colon) was > 100 µM. For the same compound, the TGI (UO-31 renal) was > 100 µM, the TGI (HL-60(TB) leukemia) was > 100 µM and the TGI (PC-3 prostate) was > 100 µM. For the same compound, the TGI (DU-145 prostate) was > 100 µM, the TGI (CCRF-CEM leukemia) was > 100 µM and the TGI (SK-MEL-28 melanoma) was > 100 µM. For the same compound, the TGI (SNB-75 CNS) was > 100 µM, the TGI (OVCAR-4 ovarian) was > 100 µM and the TGI (MALME-3M melanoma) was > 100 µM. For the same compound, the TGI (EKVX NSCLC) was > 100 µM, the TGI (OVCAR-8 ovarian) was > 100 µM and the TGI (SW-620 colon) was > 100 µM.
